Data: patent US11826373B2, “Methods for treatment of diseases” (Galera Labs, LLC, priority 2011, dated 2023)
Read-outs that look alike come from different tables or passages of the source.

Columns and labels:
[1] = Kinetic stability (dissociation of Mn(II) from ligand); assay type: physicochemical; details: second-order rate constant for dissociation of Mn(II) from the ligand, in water
TNF-α = assay: Plasma TNF-α in the collagen induced arthritis model; assay type: in vivo, Male Lewis rats
Description: Male Lewis rats (160-180 g) were used for this study. Collagen induced arthritis (CIA) was induced as follows: Bovine type II collagen (CII; Sigma) was dissolved in 0.1 M acetic acid at 2 mg/mL by stirring overnight at 4 C. Rats were immunized with an emulsion of 2 mg/mL CII in incomplete Freund's adjuvant (IFA; Sigma). The emulsion was prepared by homogenizing one part CII into one part IFA at 4 C. On day 1, rats were injected intradermally at the base of the tail with 100 μL of the emulsion. On day 21, a second injection of CII in IFA was administered at the base of the tail. GC4403 and GC4419 were prepared fresh, dissolved in 26 mM sodium bicarbonate buffered saline (Vehicle). All drugs were given by intraperitoneal injection at 1 mL/kg. Animals were randomly divided into groups (n=10 per group). GC4403 and GC4419 were administered once daily at 2, 5 and 10 mg/kg from days 25 through 35.
TNF-α levels were measured from plasma on day 35. The assay was conducted using a colorimetric ELISA kit (Calbiochem-Novabiochem) having a detection limit of 5 pg/mL. Values were expressed as mean±standard error of the mean of 10 observations. Data sets were examined by one-way ANOVA followed by a Bonferroni post-hoc test for multiple comparisons. A p-value of less than 0.05 was considered significant.

[2] = Catalytic rate constant for the dismutation of superoxide; assay type: biochemical; details: pH = 7.4
Solubility (Table 1) = assay type: physicochemical
HEK-293 cells = assay: Anti-proliferative activity in vitro; assay type: cell-based; details: 72 hour incubation, LDH assay
Description: Materials and Methods: HEK-293 (CRL-1573) cells were obtained from ATCC and cultured according to ATCC instructions. Complete growth medium consisted of RPMI 1640 supplemented to 10% with fetal bovine serum (FBS). All cell incubations were at 37° C. in 95% air: 5% CO2. Two days before the start of a proliferation experiment, 10^3 HEK-293 cells in exponential growth phase were plated into each well of a 96-well plate. To synchronize cell division, the cells were maintained in complete growth medium for 24 hours at which time the cell monolayers were rinsed once with growth medium without FBS and then incubated overnight in media without FBS. The next morning GC4419 or GC4403 in complete growth medium or complete growth medium alone was added. The plates were incubated for 72 hour, after which time cell numbers were determined using an LDH assay kit. “Cell number” on FIG. 3 represents absorbance at 490 nm.

[3] = Human Phase 1 pharmacokinetics of GC4403; assay type: in vivo; details: both sexes, plasma; for AUC(0-t): read-out: AUC0-24 h
Description: In a Phase 1 randomized, double-blind, placebo-controlled single rising dose safety, tolerability and pharmacokinetics study, 54 healthy male and female subjects were dosed from 2.2 to 25 mg of GC4403 administered intravenously over 30 minutes. Disposition of GC4403 is multi-exponential and follows linear pharmacokinetics with generally proportional increases in AUC and Cmax with increasing dose over the dose ranges studied. […] GC4403 is excreted unchanged in the urine and accounts for approximately 9 to 17% of the dose administered. No significant cardiovascular or vital sign effects, no significant physical examination abnormalities, and no significant abnormalities in routine clinical laboratory assessments were observed. Facial tingling, generalized tingling, paraesthesias and facial warmth were reported in a dose responsive manner, occurring at the 16.7 and 25 mg GC4403 doses.
(§1) As part of the conduct of the Phase 1a clinical studies for GC4403 and GC4419 described in the Examples herein, plasma samples were collected for measuring the concentration of parent compounds (GC4403 and GC4419) after intravenous infusion. Table 3 illustrates the pharmacokinetic parameter, area under the curve (AUC), representing the total exposure of the subject to the drugs over time.

[4] = Human Phase 1 pharmacokinetics of GC4419; details: both sexes, in vivo
Description: A human clinical trial entitled, “A Double-Blind, Placebo-Controlled, Single Rising Dose Study to Evaluate the Safety and Tolerability and Determine the Pharmacokinetics of M40419 Administered as a I5-Minute Intravenous Infusion in Healthy Subjects,” was conducted on 54 subjects. This was a single center, randomized, placebo-controlled, sequential panel, single dose safety, tolerability, and pharmacokinetic study of GC4419 administered as a 75-mL IV infusion over 15 minutes in escalating doses of 10 mg, 15 mg, 22 mg, 33 mg, 50 mg, 75 mg, and 112 mg. The study consisted of two phases: the first phase was a dose escalation with six subjects (four active and two placebo) in each cohort to determine a Maximum Tolerated Dose (MTD); the second phase was a repeat of the MTD dose in 12 subjects (eight active drug and four placebo) to confirm the MTD or safety of highest dose tested. The study population was comprised of 54 healthy male and female subjects (36 males, 18 females) between the ages of 18 and 50 years considered eligible on the basis of inclusion and exclusion criteria. There were four active and two placebo subjects for each dose level in the escalating dose phase of the study, and eight active and four placebo subjects for the confirmation of MTD phase.
as §1

[5] = 2 mg/kg ip once daily days 25 through 35, measured day 35
[6] = 5 mg/kg ip once daily days 25 through 35, measured day 35
[7] = 10 mg/kg ip once daily days 25 through 35, measured day 35
[8] = 26 mM bicarbonate buffered saline, aqueous buffer, at 25° C., pH 8.3, read-out: Solubility in 26 mM bicarbonate buffered saline

Row | SMILES | Kinetic Stability (kdiss) [1] | plasma TNF-α production (TNF-α; [5]) | plasma TNF-α production (TNF-α; [6]) | plasma TNF-α production (TNF-α; [7]) | Catalytic rate constant for the dismutation for superoxide (kcat) [2] | solubility (Solubility (Table 1); [8]) | solubility (Solubility (Table 1); distilled water, water) | proliferation of HEK-293 cells (HEK-293 cells) | further results
1 | [Cl][Mn-5]1234([Cl])[n+]5c6cccc5C[NH+]1[C@@H]1CCCC[C@H]1[NH+]2CC[NH+]3[C@@H]1CCCC[C@H]1[NH+]4C6 (stereo partly shown) [GC4403] | kdiss = 0.135 M^−1 s^−1 | did not significantly reduce | significantly reduced | significantly reduced | kcat = 1.2 × 10^+7 M^−1 sec^−1 | 20 mg/mL | 30 mg/mL | equivalent dose-dependent decrease | AUC(0-t) ([3]; 2.2 mg IV over 30 minutes): 184 ng·h/mL; AUC(0-t) ([3]; 3.3 mg IV over 30 minutes): 310 ng·h/mL; AUC(0-t) ([3]; 4.9 mg IV over 30 minutes): 453 ng·h/mL; AUC(0-t) ([3]; 7.4 mg IV over 30 minutes): 595 ng·h/mL; AUC(0-t) ([3]; 11.1 mg IV over 30 minutes): 1050 ng·h/mL; AUC(0-t) ([3]; 16.7 mg IV over 30 minutes): 1510 ng·h/mL; AUC(0-t) ([3]; 25 mg IV over 30 minutes): 2560 ng·h/mL; half-life ([3]; IV over 30 minutes, read-out: terminal elimination half-life (converted)): ~1.5 h
2 | [Cl][Mn-5]1234([Cl])[n+]5c6cccc5C[NH+]1[C@H]1CCCC[C@@H]1[NH+]2CC[NH+]3[C@H]1CCCC[C@@H]1[NH+]4C6 (stereo partly shown) [GC4419] | kdiss = 0.135 M^−1 s^−1 | did not significantly reduce | significantly reduced | significantly reduced | kcat = 1.2 × 10^+7 M^−1 sec^−1 | 20 mg/mL | 30 mg/mL | equivalent dose-dependent decrease | AUC(0-inf) ([4]; 10 mg IV over 15 minutes): 741 ng·h/mL; AUC(0-inf) ([4]; 15 mg IV over 15 minutes): 1300 ng·h/mL; AUC(0-inf) ([4]; 22 mg IV over 15 minutes): 2000 ng·h/mL; AUC(0-inf) ([4]; 33 mg IV over 15 minutes): 3190 ng·h/mL; AUC(0-inf) ([4]; 50 mg IV over 15 minutes): 4560 ng·h/mL; AUC(0-inf) ([4]; 75 mg IV over 15 minutes): 6490 ng·h/mL; AUC(0-inf) ([4]; 112 mg IV over 15 minutes): 10400 ng·h/mL
